# Test results: patent US6008190A, “Cobalt Schiff base compounds” (California Institute of Technology, priority 1995, dated 1999)
# Read-outs that look alike come from different tables or passages of the source. Where a SMILES comes first, the peptide text is derived from it. [ ]: non-standard residue; d: D form.
# How the values were obtained:
# [1] = molecular target: T1, Human a-thrombin (Homo sapiens, UniProt P00734); assay: Thrombin inhibition assay, Spectrozyme TH hydrolysis at 406 nm; type: biochemical; settings: for activity relative to control / thrombin activity after incubation: 0.1 μM thrombin; for activity relative to control: 2.5 mM or similar concentration, 24 hours room temperature, Co(II) compound incubated under inert atmosphere then exposed to air; for thrombin activity after incubation: 2.5 mM, 24 hours at room temperature, assayed at 25° C.
# T1 construct: Human a-thrombin and the assay agent Spectrozyme; purchased American Diagnostica (Greenwich, Conn.); host or cells: purified blood product
# Method: FIG. 1 depicts the inhibition of thrombin. 3.07×10^-9 M thrombin at 25C was assayed using Spectrozyme TH (American Diagnostics), and the reaction followed at 406 nm using a Hewlett Packard HP8452A diode array spectrophotometer with temperature control. All assays were performed in 10 mM Tris, 10 mM HEPES, 0.1% polyethylene glycol, 0.5 M NaCl, pH 7.8. The Co(III) carboxypropyl(NH3)2 (labeled as Co(carboxypropyl)) was coupled to the active site directed peptide NH2 -GGGdFPR-CO-NIH SEQ ID NO: 1 (labeled as peptide dFPR). The observed inhibition greatly exceeded Co(carboxypropyl)(NH3) )2, the peptide, and Co(III)acacen(NH3)2 Cl (labeled as Co(acacen)).
# N-(2-hydroxyethyl)piperazine-N'-2-ethanesulfonic acid (HEPES) was from J. T. Baker Phillipsburg, N.J.). Cobaltous acetate tetrahydrate was obtained from FM Science (Gibbstown, N.J.). Human a-thrombin and the assay agent Spectrozyme (H-D-hexahydrotyrosyl-L-alanyl-L-arginine-p-nitroaniline diacetate) were purchased from American Diagnostica (Greenwich, Conn.). Antithrombotic peptides were manufactured as amides by the Beckman Institute Biopolymer Synthesis group at Caltech using solid phase methods. […] was from Pharmacia (Uppsala, Sweden). Enzyme reactions were followed spectrophotometrically using a photodiode array spectrophotometer. Ultrafiltration materials were from Amicon (Beverly Mass.). HPLC used Vydac reverse phase columns. ^1 H NMR were obtained on a 300 MHz FT-NMR spectrometer. Solvents used include EM Omnisolve MeOH, Omnisolve […] passed over basic alumina to remove residual acid, Fluka (Bubcs. Switzerland) puriss. MeOH and dioxane, and Quantum Chemical (Tuscola, Ill.) absolute EtOH. Distilled water was prepared by a Barnistead Nanopure system. All other solvents were reagent trade.
# Thrombin inhibition assay: As with any purified blood product, proper care was taken to avoid the transmission of blood-borne pathogens. Thrombin was taken as received (about 1 ml, at 30 μM in 0.75 M sodium chloride storage solution) and divided into 100 μL aliquots. Each aliquot was diluted to 10 ml. using clean. filtered (2 μm) aqueous 0.75 M NaCl and divided into 1 mL samples. Each sample was stored frozen at -80° C. until ready for use. The protein should not be stored at -20 ° C. as this is too close to the cutectic point for the thrombin-salt mixture and freeze-thaw cycling may damage the protein.
# An assay buffer containing 10 mM Tris, 10 mM HEPES, 0.1% polyethylene glycol (PEG 8000) and 500 mM sodium chloride was prepared to pH 8. Following manufacturer's instructions, 5 ,μmole Spectrozyme TH was dissolved in 1.000 mL filtered nanopure water. A series of [Co^III (acacen)(NH3)2 ]Cl solutions was prepared by dissolving 16.6 mg of the compound in 0.75M NaCl and then diluting aliquots to a range of cobalt concentrations from 4.7 mM to 4.7 nM. Both of the purified materials were assayed.
# Thrombin was preincubated with inhibitor in the kinetics buffer (total volume of thrombin, buffer, and inhibitor of […]) for the times specified in FIG. 1. After incubation, the substrate, spectrozyme TH was added (8 mL of 5 mM spectrozyme), and the thrombin-catalyzed hydrolysis rates were monitored at 406 nm. The final concentration of thrombin in the experiments was 3 nM, and the concentration of substrate was […]. The inhibitor concentrations are outlined in FIG. 1. The rates of hydrolysis were determined from the linear portion of the saturation-kinetics plots. The percent activity is determined by dividing the rate of spectrozyme hydrolysis with inhibitor by the rate of hydrolysis without inhibitor and multiplying by 100.
# A vial of thrombin prepared as above was thawed in warm water. 100 μL aliquots were added to 100 μL, samples of the cobalt acacen solutions. One 100 μL aliquot of thrombin solution was diluted with 100 μL 0.75M NaCl to be used as a control. Samples were incubated as needed before assay. […]
# [2] = Axial ligand exchange of ammonia for imidazole; type: physicochemical; settings: in water with excess imidazole, 25° C.
# Source text: In a preferred embodiment, the cobalt compounds find use in the inhibition of proteins and enzymes of tumor cells. As outlined above, Co(III) "acacen" compounds can exchange an axial ligand for a different one by a dissociative mechanism with the slow loss of one axial ligand to form a five coordinate intermediate, followed by binding to another suitable ligand. For most cobalt complexes, ligand exchange is a slow process because there is a large loss of ligand field stabilization energy when a ligand is removed from an octahedral d^6 complex (see Huheey et al., Inorganic Chemistry: Principles of Structure and Reactivity, 4th Ed. HarperCollins. N.Y., chapter 13). Generally, the exchange is slow; for example, [Co(III)(acacen)(NH3)2 ]Cl in water with excess imidazole exchanges ammonia for imidazole with a half-life under an hour at 25° C., with the rate of exchange increasing with temperature. However, reduction to cobalt(II) puts an electron into the antibonding dz2 orbital, labilizing the axial ligands. Typical one-electronic reduction potentials with irreversible loss of an axial ligand are around -360 mV vs NHE, (Darbieu et al., Transition Met. Chem., 7:149 (1982)). This property may be exploited as a "redox switch" to control the activity of the cobalt compound. […]
# [3] = molecular target: T2, Thermolysin (Bacillus thermoproteolyticus, UniProt P00800)
# Source text: The resulting solution was transferred into the Tris running buffer using a PD-10 column (Pharmacia), and was characterized.
# [4] = molecular target: T2, Thermolysin; settings: incubated with 5 mM inhibitor, HEPES pH 7.0, thermolysin 5×10^-8 M, cobalt inhibitor 1.25×10^-5 M
# Method: Thermolysin (2,500,000 units, Calbiochem) was dissolved in 20 mL of Tris buffer (pH 7.2, 0.1 M, 2.5 M NaBr. 0.01 M CaCI2) and stored at 4° C.; enzyme concentration was determined by using E1%^280 =7.65 and a molecular weight of 34,600. This solution was further purified using gel filtration chromatography on an FPLC Using a Superdex 75 column (Pharmacia) equilibrated with 0.1 M Tris, 0.1 M NaBr, 0.01 CaCI, pH 7.2. This stock solution was stored at 4C. N-[3-(2-furyl)acryloyl]glycyl L-leuciniamide (FAGLA) was obtained from Sigma as the thermolysin substrate. A stock solution of FAGLA (4.0 mM) was prepared by dissolving the substrate in dimethylforthamide (DMF) and diluting it with buffer to a final concentration of 0.1 M Tris, 0.1 NaBr and 10 mM CaCl2, pH 7.0 (final concentration of DMF was 2.5%; sec Feder et al., Biochem. 9:2784-2791 (1970)). For all assays, the concentration of enzyme and substrate was 50 nM and 2.0 mM respectively. The peptidase activity of thermolysin was determined by following the decrease in absorption at 346 due to the enzymatic hydrolysis of FAGLA. Initial velocities were determined for ≤10% of the reaction.
# Thermolysin (2×10^-5 mol) was incubated with [Co(III)acacen(NH3)2 ]Cl (5 mM) in HEPES buffer (pH 7.0, 0.01 M, 0.005 M CaCl2).
# Stock solution of thermolysin was mixed with the cobalt compound dissolved in 0.1 M Tris, 0.1 M NaBr, 0.01 CaCl2, pH 7.2 (run buffer) to yield a final enzyme concentration of […] and a cobalt concentration of 2.5 mM. These solutions were incubated at 25C or 37C for several hours along with a control lacking cobalt compound. Periodically […] aliquots of these solutions were assayed for residual enzyme activity by their addition to a cuvette contain […] of FAGLA stock Solution, and following the absorption decrease at 346 nm as described above. All enzyme assays were performed at 25C.
# [5] = molecular target: thrombin (Homo sapiens, UniProt P00734); settings: initial estimate for two separate samples
# Method: The [Co(III)acacen(NH3)2 ]CI experiments were repeated for a range of cobalt concentrations from 2.4 mM to 2.4 nM after at 12 hour incubation at 25C.
# [6] = molecular target: T3, Bovine carbonic anhydrase (Bos taurus, UniProt P00921); assay: Inhibition of carbonic anhydrase, p-nitrophenylacetate substrate; type: biochemical; settings: for % inhibition of CA: inert atmosphere, Tris pH 8
# T3 construct: purchased Calbiochem
# Method: Bovine carbonic anhydrase (20 mg 6.7×10^-7 mol, Calbiochem) was dissolved in 0.5 mL Tris buffer (pH=8, 0.05 M). To this solution was added 30 mg of Co(II)hydroxypropyl acacen (30 mg, 7.6×10^-5 mol) dissolved in 0.5 mL of H2 O. This solution was incubated for 48 hours. The excess cobalt complex was separated from the protein using a PD-10 gel filtration column equilibrated with Tris buffer (pH 8, 0.05 M). This enzyme, which was incubated with the Co(III) complex, retained 100% of its activity.
# Two samples of bovine carbonic anhydrase (30 mg, 1×10^-6 mol) were dissolved in 3 mL of degassed Tris buffer (pH 8, 0.05 M). To one of the samples was added Co(II)hydroxypropyl acacen (30 mg, 9×10^-5mol). The other sample of bovine carbonic anhydrase served as the control. The solutions were incubated under inert atmosphere (glove box) and a 1 mL aliquot was removed from each sample after 48 and 96 hours of incubation. The protein was then exposed to air and the excess Co(II)hydroxypropyl acacen separated from the protein using a PD-10 gel filtration column (Pharmacia) equilibrated with Tris buffer (pH 8, 0.05 M). The enzymatic activity of the protein was assayed using p-nitroplhenylacetate as the substrate (Pocker et al., Biochem. 6:668-678 (1967)).
# T3 sequence (P00921 whole entry): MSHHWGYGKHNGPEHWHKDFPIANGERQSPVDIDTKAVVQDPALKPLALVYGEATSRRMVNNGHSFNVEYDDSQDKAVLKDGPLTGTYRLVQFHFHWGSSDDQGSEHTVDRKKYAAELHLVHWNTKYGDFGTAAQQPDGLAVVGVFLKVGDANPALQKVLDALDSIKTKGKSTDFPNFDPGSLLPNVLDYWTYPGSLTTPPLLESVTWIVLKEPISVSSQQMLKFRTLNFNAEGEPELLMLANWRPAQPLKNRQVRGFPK
# T2 sequence (P00800 233-548): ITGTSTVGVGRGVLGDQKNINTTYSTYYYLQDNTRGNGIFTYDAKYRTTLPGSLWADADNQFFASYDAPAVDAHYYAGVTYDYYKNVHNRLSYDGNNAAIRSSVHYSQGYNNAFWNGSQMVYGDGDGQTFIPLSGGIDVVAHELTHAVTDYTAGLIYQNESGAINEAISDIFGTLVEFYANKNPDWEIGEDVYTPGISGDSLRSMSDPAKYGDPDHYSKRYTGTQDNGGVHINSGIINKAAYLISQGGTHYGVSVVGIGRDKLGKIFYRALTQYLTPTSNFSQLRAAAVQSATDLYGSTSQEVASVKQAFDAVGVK
compound,measurement,setting,value
"N=C(N)NCCC[C@H](NC(=O)[C@@H]1CCCN1C(=O)[C@@H](Cc1ccccc1)NC(=O)CNC(=O)CNC(=O)CN)C(N)=O [(Gly)3 dPhePioArg, reference compound] (H-GGG[dF]PR-NH2)",Ki,[1],~209 µM
CC([O-])=CC(C)=NCCN=C(C)C=C(C)[O-].N.N.[Cl-].[Co+3] [[Co(III)acacen(NH3)2]Cl],half-life of exchange of ammonia for imidazole,[2],under an hour
same,activity relative to control,[1],0%
same,thrombin activity after incubation,[1],completely inactive
same,lowest cobalt concentration found to inhibit the protein,"[1]; range 2.4 mM to 2.4 nM, 12 hour incubation at 25C",24 µM
same,inhibition at lower incubation temperature,"[1]; range of cobalt concentrations, 3 hours at 5C, activity determined at 25C",Partial inhibition
same,loss of enzyme activity due to irreversible inactivation by the cobalt complex,"[3]; 5 mM cobalt complex, 10 μM thermolysin, overnight at 25C in presence of 50 μM phosphoramidon, after removal of the inhibitor",no detectable loss of enzyme activity
same,cobalt complexes bound to the enzyme,"[3]; active enzyme, active site protected by phosphoramidon",two
same,equivalents of the cobalt compound bound for each enzyme molecule,[3]; thermolysin completely inactivated by the cobalt complex,three
same,% inhibition,[4]; 45 minutes incubation,46.2%
same,% inhibition,[4]; 190 minutes incubation,63.9%
same,% inhibition,[4]; 322 minutes incubation,77.7%
same,cobalts per enzyme,[5],5-8
"CC(=O)C=C(C)NCCNC(C)=CC(C)=O [cobalt-free ligand, acetylacetone etlhylenediamine]",thrombin activity after incubation,[1],no effect
Co(II)hydroxypropyl acacen,% inhibition of CA,[6]; 48 hours incubation,33.8%
same,% inhibition of CA,[6]; 96 hours incubation,43.2%
same,activity relative to control,[1],42%
[Co(III)hydroxypropylacacen(NH3)2 ]CH3 COO [Co(III) complex],enzyme activity retained after incubation,"[6]; incubated 48 hours, Tris buffer pH 8, excess complex removed by gel filtration",100%
